ChEMBL document CHEMBL1909046, “DrugMatrix in vitro pharmacology data”

Key:
[1] = target: T1, Cysteinyl leukotriene receptor 1 (Homo sapiens, UniProt Q9Y271); format: cell membranes, Membrane; conditions: cho-k1; note: in other assays of this panel Not Active means under 50% inhibition at 10 µM
T1 sequence (Q9Y271 whole entry): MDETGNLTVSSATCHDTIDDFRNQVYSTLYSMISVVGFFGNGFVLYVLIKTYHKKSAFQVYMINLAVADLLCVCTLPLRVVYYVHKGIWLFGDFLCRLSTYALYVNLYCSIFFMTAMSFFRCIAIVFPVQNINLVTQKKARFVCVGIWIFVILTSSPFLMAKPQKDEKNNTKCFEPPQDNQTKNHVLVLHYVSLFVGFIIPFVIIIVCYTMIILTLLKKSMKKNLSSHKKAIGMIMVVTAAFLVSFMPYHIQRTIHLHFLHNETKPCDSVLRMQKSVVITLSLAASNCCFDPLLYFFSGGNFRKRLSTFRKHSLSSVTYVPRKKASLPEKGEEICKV

[2] = target: T2, 5-hydroxytryptamine receptor 2C (Homo sapiens, UniProt P28335); assay: DRUGMATRIX: Serotonin (5-Hydroxytryptamine) 5-HT2C radioligand binding (ligand: [3H] Mesulergine); format: cell membranes, CHO-K1, Membrane; conditions: cho-k1; Not Active = under 50% inhibition at 10 µM
T2 sequence (P28335 whole entry): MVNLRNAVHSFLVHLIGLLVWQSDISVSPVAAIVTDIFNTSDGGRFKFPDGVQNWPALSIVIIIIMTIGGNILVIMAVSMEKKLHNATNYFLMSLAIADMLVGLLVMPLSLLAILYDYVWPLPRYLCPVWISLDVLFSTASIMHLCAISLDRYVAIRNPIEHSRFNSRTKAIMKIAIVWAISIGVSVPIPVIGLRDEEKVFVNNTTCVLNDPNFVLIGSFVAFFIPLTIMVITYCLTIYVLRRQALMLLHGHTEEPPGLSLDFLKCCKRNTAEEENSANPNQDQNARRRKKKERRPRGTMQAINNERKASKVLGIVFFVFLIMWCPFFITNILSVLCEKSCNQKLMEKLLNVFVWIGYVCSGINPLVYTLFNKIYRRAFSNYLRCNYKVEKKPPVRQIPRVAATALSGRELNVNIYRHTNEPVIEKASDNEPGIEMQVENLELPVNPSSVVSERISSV

[3] = target: Mitogen-activated protein kinase 14 (Homo sapiens, UniProt Q16539); design: species or system Escherichia coli;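 note: inhibition of p38alpha enzyme activity in a biochemical kinase assay, with myelin basic protein serving as substrate; in other assays of this panel Not Active means under 50% inhibition at 10 µM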
Mitogen-activated protein kinase 14, sequence (Q16539 whole entry): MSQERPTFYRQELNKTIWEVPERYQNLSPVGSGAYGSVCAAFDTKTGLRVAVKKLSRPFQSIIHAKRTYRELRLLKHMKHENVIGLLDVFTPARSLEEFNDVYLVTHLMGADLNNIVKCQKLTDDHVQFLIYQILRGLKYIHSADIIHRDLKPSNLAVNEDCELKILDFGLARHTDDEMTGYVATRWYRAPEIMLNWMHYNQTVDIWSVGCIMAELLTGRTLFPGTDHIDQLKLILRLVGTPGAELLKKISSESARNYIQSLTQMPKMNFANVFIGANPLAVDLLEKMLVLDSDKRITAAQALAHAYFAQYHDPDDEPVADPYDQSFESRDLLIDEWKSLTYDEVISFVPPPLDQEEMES

Cytochrome P450 2D6 = Cytochrome P450 2D6 (Homo sapiens, UniProt P10635); conditions: bti-tn-5b1-4; note: in other assays of this panel Not Active means under 50% inhibition at 10 µM
Cytochrome P450 2D6, sequence (P10635 whole entry): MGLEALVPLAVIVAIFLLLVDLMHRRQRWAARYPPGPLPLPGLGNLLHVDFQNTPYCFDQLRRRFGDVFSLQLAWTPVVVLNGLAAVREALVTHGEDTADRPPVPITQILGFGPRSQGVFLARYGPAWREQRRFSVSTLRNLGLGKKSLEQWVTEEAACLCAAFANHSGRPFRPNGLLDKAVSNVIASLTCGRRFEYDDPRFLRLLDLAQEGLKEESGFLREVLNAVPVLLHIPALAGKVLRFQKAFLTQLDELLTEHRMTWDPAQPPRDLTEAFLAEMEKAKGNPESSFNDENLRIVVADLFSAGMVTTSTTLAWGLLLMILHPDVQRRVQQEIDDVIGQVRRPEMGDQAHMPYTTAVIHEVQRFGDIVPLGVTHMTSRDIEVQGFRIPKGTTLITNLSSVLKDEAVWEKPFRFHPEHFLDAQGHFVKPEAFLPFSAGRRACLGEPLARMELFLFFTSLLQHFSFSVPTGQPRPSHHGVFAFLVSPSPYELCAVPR

[4] = DRUGMATRIX: Nicotinic Acetylcholine radioligand binding (ligand: [125I] Epibatidine); format: cell membranes, Membrane; conditions: imr-32; Not Active = under 50% inhibition at 10 µM
[5] = DRUGMATRIX: Glutamate, AMPA radioligand binding (ligand: [3H] AMPA); format: cell membranes, Rattus norvegicus, Wistar, Cerebral cortex, Membrane; conditions: Not Active = under 50% inhibition at 10 µM

CCCOc1ccc(C(=O)OCCN(CC)CC)cc1N [PROPARACAINE]
Not Active: IC50 [1] | IC50 [2] | IC50 [3] | IC50 (Cytochrome P450 2D6) | Ki (Cytochrome P450 2D6) | IC50 [4] | Ki [4] | IC50 [5] | Ki [5]

C[C@@H]1O[C@@H](O[C@@H]2C=C3CC[C@@H]4[C@H](CC[C@]5(C)[C@@H](c6ccc(=O)oc6)CC[C@]45O)[C@@]3(C)CC2)[C@H](O)[C@H](O)[C@H]1O [PROSCILLARIDIN]
Not Active: IC50 [1] | IC50 [2] | IC50 [3] | IC50 (Cytochrome P450 2D6) | Ki (Cytochrome P450 2D6) | IC50 [4] | Ki [4] | IC50 [5] | Ki [5]

Oc1cccc(O)c1O [PYROGALLOL]
Not Active: IC50 [1] | IC50 [2] | IC50 [3] | IC50 (Cytochrome P450 2D6) | Ki (Cytochrome P450 2D6) | IC50 [4] | Ki [4] | IC50 [5] | Ki [5]

AURANOFIN
Not Active: IC50 [1] | Ki [1] | IC50 [2] | Ki [2] | IC50 [3] | Ki [3] | IC50 (Cytochrome P450 2D6) | Ki (Cytochrome P450 2D6) | IC50 [4] | Ki [4] | IC50 [5] | Ki [5]

GADOPENTETATE DIMEGLUMINE
Not Active: IC50 [1] | Ki [1] | IC50 [2] | Ki [2] | IC50 [3] | Ki [3] | IC50 (Cytochrome P450 2D6) | Ki (Cytochrome P450 2D6) | IC50 [4] | Ki [4] | IC50 [5] | Ki [5]

GENTAMICIN
Not Active: IC50 [1] | Ki [1] | IC50 [2] | Ki [2] | IC50 [3] | Ki [3] | IC50 (Cytochrome P450 2D6) | Ki (Cytochrome P450 2D6) | IC50 [4] | Ki [4] | IC50 [5] | Ki [5]

GRAMICIDIN
Not Active: IC50 [1] | Ki [1] | IC50 [2] | Ki [2] | IC50 [3] | Ki [3] | IC50 (Cytochrome P450 2D6) | Ki (Cytochrome P450 2D6) | IC50 [4] | Ki [4] | IC50 [5] | Ki [5]

NYSTATIN
Not Active: IC50 [1] | Ki [1] | IC50 [2] | Ki [2] | IC50 [3] | Ki [3] | IC50 (Cytochrome P450 2D6) | Ki (Cytochrome P450 2D6) | IC50 [4] | Ki [4] | IC50 [5] | Ki [5]
